Active and inactive are the calls of the source. The calls are words filed in the database; no cut-off is given here.
Assays:
Rattus norvegicus [1] = experiment: Reduction in spontaneous locomotor activity in Sprague-Dawley rat at 5.8 umol/kg, sc measured after 15 to 60 mins relative to saline-treated control; assay type: functional; set-up: scale not given: the % may be the effect or the level left
Rattus norvegicus [2] = experiment: Increase in DOPAC level in Sprague-Dawley rat striatum at 5.8 umol/kg, sc by HPLC analysis relative to saline-treated control; assay type: functional
Rattus norvegicus [3] = experiment: Increase in DOPAC level in sc dosed Sprague-Dawley rat striatum by HPLC analysis; assay type: functional
Rattus norvegicus [4] = experiment: Decrease in 5-HIAA level in Sprague-Dawley rat striatum at 5.8 umol/kg, sc by HPLC analysis relative to saline-treated control; assay type: functional; set-up: scale not given: the % may be the effect or the level left
Rattus norvegicus [5] = experiment: Reduction in spontaneous locomotor activity in Sprague-Dawley rat at 37 umol/kg, sc measured after 15 to 60 mins relative to saline-treated control; assay type: functional; set-up: scale not given: the % may be the effect or the level left
Rattus norvegicus [6] = experiment: Decrease in 5-HIAA level in Sprague-Dawley rat striatum at 37 umol/kg, sc by HPLC analysis relative to saline-treated control; assay type: functional; set-up: scale not given: the % may be the effect or the level left
Rattus norvegicus [7] = experiment: Increase in DOPAC level in Sprague-Dawley rat striatum at 37 umol/kg, sc by HPLC analysis relative to saline-treated control; assay type: functional
D(2) dopamine receptor [8] = target: T1, D(2) dopamine receptor (Homo sapiens, UniProt P14416); experiment: Displacement of [3H]7-OH-DPAT from human high affinity Dopamine D2S receptor by competition binding assay
D(2) dopamine receptor [9] = target: T1, D(2) dopamine receptor; experiment: Displacement of [3H]methylspiperone from human low affinity Dopamine D2S receptor by competition binding assay
Homo sapiens = organism: Homo sapiens; experiment: Selectivity ratio of Ki(app) for human low affinity Dopamine D2S receptor to Ki(app) for human high affinity Dopamine D2S receptor
Rattus norvegicus [10] = experiment: Inhibition of MK-801-induced hyperlocomotion in sc dosed Sprague-Dawley rat sc measured after 15 to 60 mins relative to saline-treated control; assay type: functional
Rattus norvegicus [11] = experiment: Inhibition of d-amphetamine-induced hyperlocomotion in sc dosed Sprague-Dawley rat sc measured after 15 to 60 mins relative to saline-treated control; assay type: functional
[12] = target: T2, Amine oxidase [flavin-containing] A (Rattus norvegicus, UniProt P21396); experiment: Displacement of [3H]Ro 41-1049 from MAO-A in rat cerebral cortex by competition binding assay; assay type: tissue-based
T2 sequence (P21396 whole entry): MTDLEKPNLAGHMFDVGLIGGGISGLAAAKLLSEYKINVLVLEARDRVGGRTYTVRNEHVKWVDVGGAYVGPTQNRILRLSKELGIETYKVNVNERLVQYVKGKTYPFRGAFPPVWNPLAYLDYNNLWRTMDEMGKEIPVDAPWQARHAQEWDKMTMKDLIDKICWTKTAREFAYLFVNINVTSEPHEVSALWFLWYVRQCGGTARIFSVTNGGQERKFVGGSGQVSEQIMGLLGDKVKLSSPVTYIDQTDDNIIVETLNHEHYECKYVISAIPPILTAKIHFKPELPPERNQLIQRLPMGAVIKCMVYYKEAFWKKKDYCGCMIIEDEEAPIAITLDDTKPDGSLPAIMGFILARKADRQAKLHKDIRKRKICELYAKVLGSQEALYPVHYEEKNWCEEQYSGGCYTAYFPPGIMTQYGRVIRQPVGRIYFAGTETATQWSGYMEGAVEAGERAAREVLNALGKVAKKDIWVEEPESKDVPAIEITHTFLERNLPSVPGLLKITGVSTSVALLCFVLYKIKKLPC

Rattus norvegicus [13] = experiment: Decrease in 5-HIAA level in Sprague-Dawley rat striatum at 33 umol/kg, sc by HPLC analysis relative to saline-treated control; assay type: functional; set-up: scale not given: the % may be the effect or the level left
[14] = target: T3, 5-hydroxytryptamine receptor 1A (Homo sapiens, UniProt P08908); experiment: Displacement of [3H]8- OH-DPAT from human 5-HT1A by CEREP assay; conditions: read-out: Ki(app)
T3 sequence (P08908 whole entry): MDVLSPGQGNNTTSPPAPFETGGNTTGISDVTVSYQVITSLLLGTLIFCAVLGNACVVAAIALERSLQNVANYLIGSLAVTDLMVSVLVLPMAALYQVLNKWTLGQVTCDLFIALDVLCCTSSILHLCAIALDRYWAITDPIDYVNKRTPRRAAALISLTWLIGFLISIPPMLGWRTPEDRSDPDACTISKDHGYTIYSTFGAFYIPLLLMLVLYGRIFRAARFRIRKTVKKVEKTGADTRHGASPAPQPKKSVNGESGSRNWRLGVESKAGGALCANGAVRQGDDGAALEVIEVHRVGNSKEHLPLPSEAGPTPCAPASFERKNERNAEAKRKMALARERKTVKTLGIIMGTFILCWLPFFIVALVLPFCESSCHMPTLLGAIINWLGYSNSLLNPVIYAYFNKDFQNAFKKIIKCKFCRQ

[15] = target: 5-hydroxytryptamine receptor 2A (Homo sapiens, UniProt P28223); experiment: Displacement of [3H]ketanserin from human 5-HT2A by CEREP assay; conditions: read-out: Ki(app)
[16] = target: T4, D(4) dopamine receptor (Homo sapiens) (UniProt P21917); experiment: Displacement of [3H]methylspiperone from human dopamine D4 receptor at 1 uM by CEREP assay
T4 sequence (whole entry): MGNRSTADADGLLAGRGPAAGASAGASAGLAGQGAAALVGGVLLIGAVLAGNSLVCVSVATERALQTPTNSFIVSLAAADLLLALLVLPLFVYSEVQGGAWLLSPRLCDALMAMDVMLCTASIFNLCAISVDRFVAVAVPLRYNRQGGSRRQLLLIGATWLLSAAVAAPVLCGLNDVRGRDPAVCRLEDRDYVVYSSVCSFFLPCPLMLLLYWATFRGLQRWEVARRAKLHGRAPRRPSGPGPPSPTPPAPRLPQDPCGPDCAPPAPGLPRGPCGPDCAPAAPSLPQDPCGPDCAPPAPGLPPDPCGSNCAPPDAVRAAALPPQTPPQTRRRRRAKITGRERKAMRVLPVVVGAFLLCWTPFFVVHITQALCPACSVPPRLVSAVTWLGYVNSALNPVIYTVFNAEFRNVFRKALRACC

[17] = target: T5, Alpha-2A adrenergic receptor (Homo sapiens, UniProt P08913); experiment: Displacement of [3H]UK 14.304 from human adrenergic alpha2A receptor; conditions: read-out: Ki(app)
T5 sequence (P08913 whole entry): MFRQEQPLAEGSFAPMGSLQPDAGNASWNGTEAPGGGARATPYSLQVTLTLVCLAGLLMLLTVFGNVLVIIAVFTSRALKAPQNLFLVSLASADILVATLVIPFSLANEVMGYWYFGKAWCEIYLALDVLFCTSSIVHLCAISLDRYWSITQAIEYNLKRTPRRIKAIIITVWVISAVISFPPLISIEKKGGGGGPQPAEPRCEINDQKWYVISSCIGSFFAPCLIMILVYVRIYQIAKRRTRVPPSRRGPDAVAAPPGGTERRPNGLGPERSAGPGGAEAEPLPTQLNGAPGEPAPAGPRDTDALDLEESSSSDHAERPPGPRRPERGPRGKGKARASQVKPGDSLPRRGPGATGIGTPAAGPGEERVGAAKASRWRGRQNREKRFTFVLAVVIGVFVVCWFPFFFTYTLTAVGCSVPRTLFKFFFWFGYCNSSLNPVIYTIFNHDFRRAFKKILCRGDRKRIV

D(3) dopamine receptor = D(3) dopamine receptor (Homo sapiens, UniProt P35462); experiment: Displacement of [3H]7-OH-DPAT from human dopamine D3 receptor by CEREP assay; conditions: read-out: Ki(app)
[18] = target: Sodium-dependent serotonin transporter (Homo sapiens, UniProt P31645); experiment: Displacement of [3H]imipramine from human SERT expressed in CHO cells by competition binding assay; assay type: cell-based; conditions: read-out: Ki(app)
Rattus norvegicus [19] = experiment: Reduction in spontaneous locomotor activity in Sprague-Dawley rat at 33 umol/kg, sc measured after 15 to 60 mins relative to saline-treated control; assay type: functional; set-up: scale not given: the % may be the effect or the level left
[20] = target: Sodium-dependent dopamine transporter (Homo sapiens) (UniProt Q01959); experiment: Displacement of [3H]BTCP from human DAT at 1 uM by CEREP assay
[21] = target: 5-hydroxytryptamine receptor 6 (Homo sapiens, UniProt P50406); experiment: Displacement of [3H]LSD from human 5-HT6 receptor
Rattus norvegicus [22] = experiment: Increase in DOPAC level in Sprague-Dawley rat striatum at 33 umol/kg, sc by HPLC analysis relative to saline-treated control; assay type: functional
Rattus norvegicus [23] = experiment: Increase in DOPAC level in Sprague-Dawley rat striatum at 6.4 umol/kg, sc by HPLC analysis relative to saline-treated control; assay type: functional
Rattus norvegicus [24] = experiment: Decrease in 5-HIAA level in Sprague-Dawley rat striatum at 6.4 umol/kg, sc by HPLC analysis relative to saline-treated control; assay type: functional; set-up: scale not given: the % may be the effect or the level left
Rattus norvegicus [25] = experiment: Reduction in spontaneous locomotor activity in Sprague-Dawley rat at 6.4 umol/kg, sc measured after 15 to 60 mins relative to saline-treated control; assay type: functional; set-up: scale not given: the % may be the effect or the level left
Rattus norvegicus [26] = experiment: Reduction in spontaneous locomotor activity in Sprague-Dawley rat at 2.4 umol/kg, sc measured after 15 to 60 mins relative to saline-treated control; assay type: functional; set-up: scale not given: the % may be the effect or the level left
Rattus norvegicus [27] = experiment: Increase in DOPAC level in Sprague-Dawley rat striatum at 2.4 umol/kg, sc by HPLC analysis relative to saline-treated control; assay type: functional
Rattus norvegicus [28] = experiment: Decrease in 5-HIAA level in Sprague-Dawley rat striatum at 2.4 umol/kg, sc by HPLC analysis relative to saline-treated control; assay type: functional; set-up: scale not given: the % may be the effect or the level left
Rattus norvegicus [29] = experiment: Reduction in spontaneous locomotor activity in Sprague-Dawley rat at 25 umol/kg, sc measured after 15 to 60 mins relative to saline-treated control; assay type: functional; set-up: scale not given: the % may be the effect or the level left
Rattus norvegicus [30] = experiment: Decrease in 5-HIAA level in Sprague-Dawley rat striatum at 25 umol/kg, sc by HPLC analysis relative to saline-treated control; assay type: functional; set-up: scale not given: the % may be the effect or the level left
Rattus norvegicus [31] = experiment: Increase in DOPAC level in Sprague-Dawley rat striatum at 25 umol/kg, sc by HPLC analysis relative to saline-treated control; assay type: functional

T1 sequence (P14416 whole entry): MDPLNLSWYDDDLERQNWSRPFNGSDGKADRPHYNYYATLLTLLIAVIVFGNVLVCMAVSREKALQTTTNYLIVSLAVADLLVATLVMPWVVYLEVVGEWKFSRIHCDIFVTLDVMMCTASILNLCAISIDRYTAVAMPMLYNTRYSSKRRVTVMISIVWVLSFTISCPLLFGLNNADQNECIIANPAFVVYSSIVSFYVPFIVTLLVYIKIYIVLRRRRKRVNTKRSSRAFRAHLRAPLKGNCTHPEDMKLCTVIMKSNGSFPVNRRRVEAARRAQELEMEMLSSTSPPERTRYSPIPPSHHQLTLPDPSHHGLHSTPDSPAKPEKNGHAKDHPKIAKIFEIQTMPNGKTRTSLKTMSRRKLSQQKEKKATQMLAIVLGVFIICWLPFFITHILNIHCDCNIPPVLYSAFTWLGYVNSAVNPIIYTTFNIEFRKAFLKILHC
5-hydroxytryptamine receptor 2A, sequence (P28223 whole entry): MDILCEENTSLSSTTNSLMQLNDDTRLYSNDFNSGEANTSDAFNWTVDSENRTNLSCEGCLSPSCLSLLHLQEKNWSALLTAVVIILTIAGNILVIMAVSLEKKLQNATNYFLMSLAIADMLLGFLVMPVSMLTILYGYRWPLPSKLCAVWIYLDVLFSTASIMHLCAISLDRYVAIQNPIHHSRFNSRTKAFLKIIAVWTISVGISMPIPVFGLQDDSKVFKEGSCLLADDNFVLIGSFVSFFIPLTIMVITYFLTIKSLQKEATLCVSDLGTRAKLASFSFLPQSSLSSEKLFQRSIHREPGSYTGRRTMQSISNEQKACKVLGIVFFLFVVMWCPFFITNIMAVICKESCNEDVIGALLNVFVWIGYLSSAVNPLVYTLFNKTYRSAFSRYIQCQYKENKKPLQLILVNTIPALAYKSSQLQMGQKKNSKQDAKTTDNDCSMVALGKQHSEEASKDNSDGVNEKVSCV
5-hydroxytryptamine receptor 6, sequence (P50406 whole entry): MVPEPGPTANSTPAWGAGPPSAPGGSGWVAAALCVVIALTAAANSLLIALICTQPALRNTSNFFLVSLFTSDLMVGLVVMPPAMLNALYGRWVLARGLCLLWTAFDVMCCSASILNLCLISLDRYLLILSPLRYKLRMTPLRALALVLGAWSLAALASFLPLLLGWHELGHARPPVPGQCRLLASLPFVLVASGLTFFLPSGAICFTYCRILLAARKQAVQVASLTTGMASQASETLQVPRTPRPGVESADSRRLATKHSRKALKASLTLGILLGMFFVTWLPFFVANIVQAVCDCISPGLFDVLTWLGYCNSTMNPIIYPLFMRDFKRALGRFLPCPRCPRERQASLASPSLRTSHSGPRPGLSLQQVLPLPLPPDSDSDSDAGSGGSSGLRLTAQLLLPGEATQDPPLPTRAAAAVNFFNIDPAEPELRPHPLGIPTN
D(3) dopamine receptor, sequence (P35462 whole entry): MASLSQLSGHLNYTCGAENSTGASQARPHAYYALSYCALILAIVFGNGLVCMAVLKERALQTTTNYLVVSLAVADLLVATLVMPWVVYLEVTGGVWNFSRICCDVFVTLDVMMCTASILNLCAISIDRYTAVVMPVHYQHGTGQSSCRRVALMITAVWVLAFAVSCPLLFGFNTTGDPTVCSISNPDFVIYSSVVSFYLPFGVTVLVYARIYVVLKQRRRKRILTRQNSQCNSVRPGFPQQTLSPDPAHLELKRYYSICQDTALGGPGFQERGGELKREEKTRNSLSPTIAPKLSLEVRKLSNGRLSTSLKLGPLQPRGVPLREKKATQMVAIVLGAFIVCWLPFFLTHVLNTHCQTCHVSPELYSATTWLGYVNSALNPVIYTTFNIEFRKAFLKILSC
Sodium-dependent serotonin transporter, sequence (P31645 whole entry): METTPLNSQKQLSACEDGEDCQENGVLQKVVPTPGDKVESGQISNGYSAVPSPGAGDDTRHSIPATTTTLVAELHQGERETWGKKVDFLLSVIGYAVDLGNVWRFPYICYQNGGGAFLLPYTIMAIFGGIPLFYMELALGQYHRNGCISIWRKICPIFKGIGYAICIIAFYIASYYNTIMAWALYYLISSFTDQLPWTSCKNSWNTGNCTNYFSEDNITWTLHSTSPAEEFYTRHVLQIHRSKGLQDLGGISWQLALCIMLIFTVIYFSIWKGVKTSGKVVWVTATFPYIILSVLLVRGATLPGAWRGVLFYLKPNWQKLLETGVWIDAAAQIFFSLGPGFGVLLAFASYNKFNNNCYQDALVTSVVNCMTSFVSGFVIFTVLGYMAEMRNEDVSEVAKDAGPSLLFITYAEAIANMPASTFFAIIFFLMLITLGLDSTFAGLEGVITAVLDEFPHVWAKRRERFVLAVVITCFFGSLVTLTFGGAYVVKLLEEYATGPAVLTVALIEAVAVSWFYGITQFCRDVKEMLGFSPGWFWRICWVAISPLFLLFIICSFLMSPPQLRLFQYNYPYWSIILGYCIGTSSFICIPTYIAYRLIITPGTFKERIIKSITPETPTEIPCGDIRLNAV
Sodium-dependent dopamine transporter (Homo sapiens), sequence (Q01959 whole entry): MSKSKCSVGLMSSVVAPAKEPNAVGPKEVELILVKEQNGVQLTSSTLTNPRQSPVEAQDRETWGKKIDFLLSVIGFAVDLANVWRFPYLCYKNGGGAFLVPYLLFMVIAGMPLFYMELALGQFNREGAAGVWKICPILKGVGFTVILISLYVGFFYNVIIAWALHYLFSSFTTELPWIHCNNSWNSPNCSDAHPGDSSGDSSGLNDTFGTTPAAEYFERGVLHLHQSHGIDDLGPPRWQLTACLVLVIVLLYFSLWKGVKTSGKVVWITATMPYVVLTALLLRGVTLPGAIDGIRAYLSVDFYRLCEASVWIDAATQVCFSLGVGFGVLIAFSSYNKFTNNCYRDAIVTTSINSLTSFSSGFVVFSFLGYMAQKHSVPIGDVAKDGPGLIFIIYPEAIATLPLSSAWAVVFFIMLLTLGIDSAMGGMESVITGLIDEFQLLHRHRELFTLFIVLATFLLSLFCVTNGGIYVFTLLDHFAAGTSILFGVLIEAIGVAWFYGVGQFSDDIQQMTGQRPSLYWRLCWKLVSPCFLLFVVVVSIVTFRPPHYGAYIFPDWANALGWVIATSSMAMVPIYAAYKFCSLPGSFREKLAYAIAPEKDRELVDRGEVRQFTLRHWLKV

Which results are given for `O=c1[nH]c2ccccc2n1C1CCN(CCCC(c2ccc(F)cc2)c2ccc(F)cc2)CC1` [PIMOZIDE]?
Activity (Rattus norvegicus [1]): 7.3%; Activity (Rattus norvegicus [2]): 416%; ED50 (Rattus norvegicus [3]): 1.6 µmol/kg; Activity (Rattus norvegicus [4]): 101%

`O=C(NCCN1CCOCC1)c1ccc(Cl)cc1` [MOCLOBEMIDE] was tested. Which Activity (Rattus norvegicus [5]) did it give?
Its Activity is 164%.

And the Activity (Rattus norvegicus [6])?
Its Activity is 81%.

And the Activity (Rattus norvegicus [7])?
The Activity was 18%.

How did the Ki (D(2) dopamine receptor [8]) turn out when `CCCN1CCC(n2c(=O)[nH]c3cc(Cl)ccc32)CC1` was run?
Its Ki is 0.456 µM.

What about the Ki (D(2) dopamine receptor [9]) of the same molecule?
Its Ki is 0.371 µM.

What about the Ratio Ki(app) (Homo sapiens) of the same molecule?
The Ratio Ki(app) was 0.8.

And the “inhibition (INH)” value (Rattus norvegicus [10])?
Its value is 42%.

And the “inhibition (INH)” value (Rattus norvegicus [11])?
The value was 4%.

What about the IC50 [12] of the same molecule?
The IC50 was > 580 µM.

And the Activity (Rattus norvegicus [13])?
The Activity was 101%.

What about the Ki [14] of the same molecule?
The Ki was 5.71 µM.

And the Ki [15]?
Its Ki is 21.6 µM.

And the inhibition [16]?
Its inhibition is 17%.

What about the Ki [17] of the same molecule?
The Ki was 17.2 µM.

And the Ki (D(3) dopamine receptor)?
Its Ki is 2.52 µM.

What about the Ki [18] of the same molecule?
The Ki was 3.51 µM.

And the Activity (Rattus norvegicus [19])?
The Activity was 54%.

What about the inhibition [20] of the same molecule?
Its inhibition is 15%.

And the ED50 (Rattus norvegicus [3])?
The ED50 was 7 µmol/kg.

And the IC50 [21]?
Its IC50 is > 580 µM.

And the Activity (Rattus norvegicus [22])?
The Activity was 334%.

Which results are given for `O=C1Cc2cc(CCN3CCN(c4nsc5ccccc45)CC3)c(Cl)cc2N1` [ZIPRASIDONE]?
Activity (Rattus norvegicus [23]): 311%; Activity (Rattus norvegicus [24]): 98%; Activity (Rattus norvegicus [25]): 13%; ED50 (Rattus norvegicus [3]): 1.2 µmol/kg

Which Activity (Rattus norvegicus [26]) does the source give for `Cc1nc2n(c(=O)c1CCN1CCC(c3noc4cc(F)ccc34)CC1)CCCC2` [RISPERIDONE] here?
Its Activity is 11%.

What about the Activity (Rattus norvegicus [27]) of the same molecule?
Its Activity is 347%.

And the ED50 (Rattus norvegicus [3])?
Its ED50 is 0.5 µmol/kg.

What about the Activity (Rattus norvegicus [28]) of the same molecule?
Its Activity is 115%.

Which results are given for `CN(C)CCCC1(c2ccc(F)cc2)OCc2cc(C#N)ccc21` (configuration not stated) [CITALOPRAM]?
Activity (Rattus norvegicus [29]): 50%; Activity (Rattus norvegicus [30]): 69%; ED50 (Rattus norvegicus [3]): inactive; Activity (Rattus norvegicus [31]): 101%

Source: ChEMBL document CHEMBL2203152, “Systematic in vivo screening of a series of 1-propyl-4-arylpiperidines against dopaminergic and serotonergic properties in rat brain: a scaffold-jumping approach” (J Med Chem, 2012)
